Results taken from ChEMBL document CHEMBL5512674, “Novel Acyl Thiourea-Based Hydrophobic Tagging Degraders Exert Potent Anti-Influenza Activity through Two Distinct Endonuclease Polymerase Acidic-Targeted Degradation Pathways” (J Med Chem, 2024).
Activity calls are given as the source filed them. No cut-off for these calls is given here.

Experiments:
[1] = target: T1, von Hippel-Lindau disease tumor suppressor/Polymerase basic protein 2 (Influenza A virus (strain A/Puerto Rico/8/1934 H1N1)) (UniProt P40337+P03428); assay: PROTAC activity at Influenza A virus A/WSN/33(H1N1) flag tagged Polymerase basic protein 2/VHL (unknown origin) expressed in HEK293T cells assessed as degradation of PB2 expression at 1 ug/ml incubated for 24 hrs by Western blotting analysis; type: cell-based; settings: dose 1.0 µg/ml
[2] = target: T2, von Hippel-Lindau disease tumor suppressor/Polymerase acidic protein (Influenza A virus (A/Puerto Rico/8/1934(H1N1))) (UniProt P03433+P40337); assay: PROTAC activity at Influenza A virus A/WSN/33(H1N1) flag tagged Polymerase acidic protein/VHL (unknown origin) expressed in HEK293T cells assessed as degradation of PA expression at 10 uM incubated for 24 hrs by Western blotting analysis; type: cell-based
[3] = Cytotoxicity against human HEK293T cells assessed as reduction in cell viability incubated for 48 hrs by CCK-8 assay; type: toxicity, cell-based, HEK-293T
[4] = test system: Influenza A virus; assay: Anti-influenza activity against Influenza A virus A/WSN/33(H1N1) infected in HEK293T cells assessed as reduction in virus-induced cytopathic effect incubated for 48 hrs by CCK-8 assay; type: functional, organism-based; settings: HEK-293T
[5] = target: T3, von Hippel-Lindau disease tumor suppressor/Polymerase basic protein 1 (Influenza A virus (strain A/Puerto Rico/8/1934 H1N1)) (UniProt P03431+P40337); assay: PROTAC activity at Influenza A virus A/WSN/33(H1N1) flag tagged Polymerase basic protein 1/VHL (unknown origin) expressed in HEK293T cells assessed as degradation of PB1 expression at 10 ug/ml incubated for 24 hrs by Western blotting analysis; type: cell-based; settings: dose 10.0 µg/ml
[6] = target: T3, von Hippel-Lindau disease tumor suppressor/Polymerase basic protein 1 (Influenza A virus (strain A/Puerto Rico/8/1934 H1N1)); assay: PROTAC activity at Influenza A virus A/WSN/33(H1N1) flag tagged Polymerase basic protein 1/VHL (unknown origin) expressed in HEK293T cells assessed as degradation of PB1 expression at 1 ug/ml incubated for 24 hrs by Western blotting analysis; type: cell-based; settings: dose 1.0 µg/ml
[7] = target: T1, von Hippel-Lindau disease tumor suppressor/Polymerase basic protein 2 (Influenza A virus (strain A/Puerto Rico/8/1934 H1N1)); assay: PROTAC activity at Influenza A virus A/WSN/33(H1N1) flag tagged Polymerase basic protein 2/VHL (unknown origin) expressed in HEK293T cells assessed as degradation of PB2 expression at 10 ug/ml incubated for 24 hrs by Western blotting analysis; type: cell-based; settings: dose 10.0 µg/ml
[8] = Selectivity index, ratio of CC50 for cytotoxicity against human HEK293T cells to EC50 for anti-influenza activity against Influenza A virus A/WSN/33(H1N1) infected in HEK293T cells assessed as reduction in virus-induced cytopathic effect; type: toxicity, cell-based; settings: read-out: Ratio CC50/EC50
[9] = target: T2, von Hippel-Lindau disease tumor suppressor/Polymerase acidic protein (Influenza A virus (A/Puerto Rico/8/1934(H1N1))); assay: PROTAC activity at Influenza A virus A/WSN/33(H1N1) flag tagged Polymerase acidic protein/VHL (unknown origin) expressed in HEK293T cells assessed as degradation of PA expression at 5 uM incubated for 24 hrs by Western blotting analysis; type: cell-based
[10] = test system: Influenza A virus; assay: Anti-influenza activity against Influenza A virus H3N2 infected in HEK293T cells assessed as reduction in virus-induced cytopathic effect incubated for 48 hrs by CCK-8 assay; type: functional, organism-based; settings: H3N2, HEK-293T
[11] = test system: Influenza B virus; assay: Anti-influenza activity against Influenza B virus Victoria/2/87 infected in HEK293T cells assessed as reduction in virus-induced cytopathic effect incubated for 48 hrs by CCK-8 assay; type: functional, organism-based; settings: Victoria/2/87, HEK-293T
[12] = test system: Influenza B virus; assay: Anti-influenza activity against Influenza B virus Yamagata/16/88 infected in HEK293T cells assessed as reduction in virus-induced cytopathic effect incubated for 48 hrs by CCK-8 assay; type: functional, organism-based; settings: Yamagata/16/88, HEK-293T
[13] = target: T1, von Hippel-Lindau disease tumor suppressor/Polymerase basic protein 2 (Influenza A virus (strain A/Puerto Rico/8/1934 H1N1)); assay: PROTAC activity at Influenza A virus A/WSN/33(H1N1) flag tagged Polymerase basic protein 2/VHL (unknown origin) expressed in HEK293T cells assessed as degradation of PB2 expression at 0.1 to 10 uM incubated for 24 hrs by Western blotting analysis; type: cell-based; settings: dose 0.1-10 µM
[14] = target: von Hippel-Lindau disease tumor suppressor/Polymerase acidic protein (Influenza A virus (A/Puerto Rico/8/1934(H1N1)), UniProt P03433+P40337); assay: PROTAC activity at Influenza A virus A/WSN/33(H1N1) flag tagged Polymerase acidic protein/VHL (unknown origin) expressed in HEK293T cells assessed as degradation of PA expression incubated for 24 hrs by Western blotting analysis; type: cell-based
[15] = target: T3, von Hippel-Lindau disease tumor suppressor/Polymerase basic protein 1 (Influenza A virus (strain A/Puerto Rico/8/1934 H1N1)); assay: PROTAC activity at Influenza A virus A/WSN/33(H1N1) flag tagged Polymerase basic protein 1/VHL (unknown origin) expressed in HEK293T cells assessed as degradation of PB1 expression at 0.1 to 10 uM incubated for 24 hrs by Western blotting analysis; type: cell-based; settings: dose 0.1-10 µM
[16] = test system: Influenza A virus; assay: Anti-influenza activity against Influenza A virus A/WSN/33(H1N1) infected in MDCK cells assessed as downregulation of nucleoprotein expression at 100 nM incubated for 24 hrs by Western blotting analysis relative to control; type: functional
[17] = Cytotoxicity against dog MDCK cells assessed as reduction in cell viability incubated for 48 hrs by CCK-8 assay; type: toxicity, cell-based, Canis lupus familiaris
[18] = Hepatic extraction ratio in human liver microsomes preincubated for 5 mins followed by NADPH addition and measured for 45 mins by LC-MS analysis; type: ADME, Microsome; settings: time 50 min, read-out: ERH
[19] = Hepatic extraction ratio in mouse liver microsomes preincubated for 5 mins followed by NADPH addition and measured for 45 mins by LC-MS analysis; type: ADME, Microsome; settings: time 50 min, read-out: ERH
[20] = Hepatic extraction ratio in dog liver microsomes preincubated for 5 mins followed by NADPH addition and measured for 45 mins by LC-MS analysis; type: ADME, Canis lupus familiaris, Microsome; settings: time 50 min, read-out: ERH
[21] = target: T2, von Hippel-Lindau disease tumor suppressor/Polymerase acidic protein (Influenza A virus (A/Puerto Rico/8/1934(H1N1))); assay: PROTAC activity at Influenza A virus A/WSN/33(H1N1) flag tagged Polymerase acidic protein/VHL (unknown origin) expressed in HEK293T cells assessed as degradation of PA expression at 10 uM incubated for 16 hrs by Western blotting analysis; type: cell-based
[22] = Stability in human plasma assessed as compound remaining measured after 15 mins by LC-MS/MS analysis; type: ADME, cell-free; settings: 0.25 h, BLD = below limit of detection
[23] = Stability in human plasma assessed as compound remaining measured after 5 mins by LC-MS/MS analysis; type: ADME, cell-free; settings: read-out: Stability
[24] = Stability in human plasma assessed as compound remaining measured after 120 mins by LC-MS/MS analysis; type: ADME, cell-free; settings: 2 h, BLD = below limit of detection
[25] = Half life in human plasma by LC-MS/MS analysis; type: ADME, cell-free
[26] = Stability in human plasma assessed as compound remaining by LC-MS/MS analysis; type: ADME, cell-free
[27] = Stability in human plasma assessed as compound remaining measured after 60 mins by LC-MS/MS analysis; type: ADME, cell-free; settings: read-out: Stability
[28] = Stability in human plasma assessed as compound remaining measured after 30 mins by LC-MS/MS analysis; type: ADME, cell-free; settings: 0.5 h, BLD = below limit of detection
[29] = target: T4, Protein cereblon/Androgen receptor (Homo sapiens) (UniProt P10275+Q96SW2); assay: PROTAC activity at Influenza A virus A/WSN/33(H1N1) flag tagged Polymerase acidic protein/CRBN (unknown origin) expressed in HEK293T cells assessed as degradation of PA expression at 5 uM incubated for 24 hrs by Western blotting analysis; type: cell-based
[30] = target: T4, Protein cereblon/Androgen receptor (Homo sapiens); assay: PROTAC activity at Influenza A virus A/WSN/33(H1N1) flag tagged Polymerase acidic protein/CRBN (unknown origin) expressed in HEK293T cells assessed as degradation of PA expression at 10 uM incubated for 16 hrs by Western blotting analysis; type: cell-based

Row | Compound | Activity [1] | Activity [2] | CC50 at 48 h [3] | EC50 [4] | Activity [5] | Activity [6] | Activity [7] | selectivity ratio [8] | further results
1 | CC(C)(C)OC(=O)NCCCC[C@H](NC(=O)OC(C)(C)C)C(=O)NCCCCCCCCCCC(=O)Nc1ccc(NC(=S)NC(=O)c2ccc(C(C)(C)C)cc2)cc1 | inactive | Active | 74500 nM | 186 nM | inactive | inactive | inactive | 400 | 
2 | CC(C)(C)OC(=O)N[C@@H](Cc1c[nH]c2ccccc12)C(=O)NCCCCCCCCCC(=O)Nc1ccc(NC(=S)NC(=O)c2ccc(C(C)(C)C)cc2)cc1 | inactive | Active | > 100000 nM | 64 nM | inactive | inactive | inactive | > 1560 | 
3 | CC(C)(C)OC(=O)NCCCC[C@H](NC(=O)OC(C)(C)C)C(=O)NCCCCCCCCCC(=O)Nc1ccc(NC(=S)NC(=O)c2ccc(C(C)(C)C)cc2)cc1 | inactive | Active | > 100000 nM | 45 nM | inactive | inactive | inactive | > 2220 | 
4 | CC(C)(C)c1ccc(C(=O)NC(=S)Nc2ccc(NC(=O)CCCCCCCNC(=O)[C@@H](N)Cc3cnc[nH]3)cc2)cc1 |  |  |  |  |  |  |  |  | Activity [9]: inactive
5 | CC(C)(C)OC(=O)NCCCC[C@H](NC(=O)OC(C)(C)C)C(=O)NCCCCCCC(=O)Nc1ccc(NC(=S)NC(=O)c2ccc(C(C)(C)C)cc2)cc1 | inactive | Active | > 100000 nM | 75 nM | inactive | inactive | inactive | > 1330 | 
6 | CC(C)(C)OC(=O)NCCCC[C@H](NC(=O)OC(C)(C)C)C(=O)NCCCCCCCCC(=O)Nc1ccc(NC(=S)NC(=O)c2ccc(C(C)(C)C)cc2)cc1 | inactive | Active | > 100000 nM | 21 nM | inactive | inactive | inactive | > 4760 | EC50 [10]: > 10000 nM; EC50 [11]: 167 nM; EC50 [12]: 130 nM; Activity [13]: inactive; DC50 [14]: 650 nM; Activity [15]: inactive
7 | CC(C)(C)c1ccc(C(=O)NC(=S)Nc2ccc(NC(=O)CCCCCCCNC(=O)[C@@H](N)CC(N)=O)cc2)cc1 |  |  |  |  |  |  |  |  | Activity [9]: inactive
8 | CCOC(=O)C1=C[C@@H](OC(CC)CC)[C@H](NC(C)=O)[C@@H](N)C1 [OSELTAMIVIR] |  |  |  |  |  |  |  |  | Activity [16]: 44%; CC50 at 48 h [17]: > 200000 nM
9 | O=C(c1ccc(F)cc1)C1CCN(CCn2c(=O)[nH]c3ccccc3c2=O)CC1 [KETANSERIN] |  |  |  |  |  |  |  |  | hepatic extraction ratio at 0.75 h [18]: 0.693; hepatic extraction ratio at 0.75 h [19]: 0.765; hepatic extraction ratio at 0.75 h [20]: 0.697
10 | Cc1ncsc1-c1ccc(CNC(=O)[C@@H]2C[C@@H](O)CN2C(=O)C(NCCCCCCCC(=O)Nc2ccc(NC(=S)NC(=O)c3ccc(C(C)(C)C)cc3)cc2)C(C)(C)C)cc1 (mixture of isomers) |  |  |  | > 10000 nM |  |  |  |  | Activity [21]: Active; Activity [9]: Active
11 | CCN(CC)CCOC(=O)c1ccc(N)cc1 [PROCAINE] |  |  |  |  |  |  |  |  | Stability [22]: Bld; remaining at 5 min [23]: 4.49%; Stability [24]: Bld; half-life [25]: 1.12 min; Stability [26]: 100%; remaining at 1 h [27]: 0.1%; Stability [28]: Bld
12 | NC(=O)c1nc(F)cnc1O [FAVIPIRAVIR] |  |  | > 100000 nM | 8290 nM |  |  |  | > 18.1 | EC50 [10]: > 10000 nM; EC50 [11]: > 10000 nM; EC50 [12]: > 10000 nM
13 | CC(C)(C)c1ccc(C(=O)NC(=S)Nc2ccc(NC(=O)CCCCCCCNc3cccc4c3CN(C3CCC(=O)NC3=O)C4=O)cc2)cc1 (configuration not stated) |  |  |  | > 10000 nM |  |  |  |  | Activity [29]: Active; Activity [30]: Active
14 | CC(C)(C)OC(=O)N[C@@H](Cc1c[nH]c2ccccc12)C(=O)NCCCCCCCC(=O)Nc1ccc(NC(=S)NC(=O)c2ccc(C(C)(C)C)cc2)cc1 | inactive |  | > 100000 nM | 43 nM | inactive | inactive | inactive | > 2330 | 
15 | CCCCCCCCNC(=O)[C@H](CCCCNC(=O)OC(C)(C)C)NC(=O)OC(C)(C)C |  |  |  |  |  |  |  |  | Activity [9]: inactive
16 | CC(C)(C)OC(=O)N[C@@H](Cc1c[nH]c2ccccc12)C(=O)NCCCCCC(=O)Nc1ccc(NC(=S)NC(=O)c2ccc(C(C)(C)C)cc2)cc1 | inactive |  | > 100000 nM | 344 nM | inactive | inactive | inactive | > 291 | 
